Measured values published in ChEMBL document CHEMBL1201862, “PubChem BioAssay data set” (2004).
Calls of active or inactive are those of the source.

What was measured:
[1] = target: T1, Short transient receptor potential channel 4 (Mus musculus, UniProt Q9QUQ5); experiment: mouse TRPC4 channel inhibitors, dose response, cell-based, HEK293 TRPC4/mu-opioid, Fluo-4 calcium (AID 434942); assay type: functional;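 further: potency of inhibitors blocking the TRPC4 calcium response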
T1 sequence (Q9QUQ5 whole entry): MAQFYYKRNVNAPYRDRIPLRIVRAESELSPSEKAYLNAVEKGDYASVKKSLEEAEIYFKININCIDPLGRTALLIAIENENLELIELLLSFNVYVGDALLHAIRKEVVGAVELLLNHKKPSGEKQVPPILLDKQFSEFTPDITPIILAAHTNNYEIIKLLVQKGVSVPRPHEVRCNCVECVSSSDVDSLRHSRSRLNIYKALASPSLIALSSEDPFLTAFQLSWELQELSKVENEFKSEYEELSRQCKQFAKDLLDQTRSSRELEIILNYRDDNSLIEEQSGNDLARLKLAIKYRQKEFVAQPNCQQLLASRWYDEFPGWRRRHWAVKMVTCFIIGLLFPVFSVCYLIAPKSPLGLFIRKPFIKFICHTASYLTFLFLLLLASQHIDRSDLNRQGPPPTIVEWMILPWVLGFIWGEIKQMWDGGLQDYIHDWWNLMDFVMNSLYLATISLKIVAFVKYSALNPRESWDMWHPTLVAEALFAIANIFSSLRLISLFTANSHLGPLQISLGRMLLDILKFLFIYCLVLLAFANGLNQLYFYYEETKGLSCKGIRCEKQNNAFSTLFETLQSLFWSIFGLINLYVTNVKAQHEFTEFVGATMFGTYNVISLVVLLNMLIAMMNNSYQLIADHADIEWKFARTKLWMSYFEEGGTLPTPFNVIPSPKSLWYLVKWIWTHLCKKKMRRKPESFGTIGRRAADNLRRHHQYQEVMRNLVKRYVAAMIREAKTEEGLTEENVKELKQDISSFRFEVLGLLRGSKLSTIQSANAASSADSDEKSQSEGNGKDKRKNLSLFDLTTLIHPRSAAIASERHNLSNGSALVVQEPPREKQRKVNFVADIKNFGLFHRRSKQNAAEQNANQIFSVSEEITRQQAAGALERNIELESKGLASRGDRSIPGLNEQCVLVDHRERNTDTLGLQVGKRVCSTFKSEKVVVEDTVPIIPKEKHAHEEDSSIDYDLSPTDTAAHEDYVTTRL

[2] = target: Beta-2 adrenergic receptor (Homo sapiens, UniProt P07550); experiment: beta2AR agonists driving receptor internalization, dose response, cell-based, FAP fluorogen, flow cytometry, cherry pick 1 (AID 588763); assay type: functional
Chain of Beta-2 adrenergic receptor (P07550 whole entry): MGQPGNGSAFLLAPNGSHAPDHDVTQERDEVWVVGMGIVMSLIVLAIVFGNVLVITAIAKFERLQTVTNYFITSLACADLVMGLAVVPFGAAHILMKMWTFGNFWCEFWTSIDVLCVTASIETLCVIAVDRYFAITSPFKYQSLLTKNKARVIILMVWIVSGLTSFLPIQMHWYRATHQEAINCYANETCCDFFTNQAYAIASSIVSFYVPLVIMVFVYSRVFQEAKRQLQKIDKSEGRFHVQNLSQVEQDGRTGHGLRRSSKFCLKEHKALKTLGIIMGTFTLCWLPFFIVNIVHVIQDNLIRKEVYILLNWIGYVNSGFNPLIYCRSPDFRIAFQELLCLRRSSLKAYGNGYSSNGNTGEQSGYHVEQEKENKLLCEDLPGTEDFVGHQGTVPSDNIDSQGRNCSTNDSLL

[3] = target: Apoptotic protease-activating factor 1 (Homo sapiens, UniProt O14727); assay type: functional
Chain of Apoptotic protease-activating factor 1 (O14727 whole entry): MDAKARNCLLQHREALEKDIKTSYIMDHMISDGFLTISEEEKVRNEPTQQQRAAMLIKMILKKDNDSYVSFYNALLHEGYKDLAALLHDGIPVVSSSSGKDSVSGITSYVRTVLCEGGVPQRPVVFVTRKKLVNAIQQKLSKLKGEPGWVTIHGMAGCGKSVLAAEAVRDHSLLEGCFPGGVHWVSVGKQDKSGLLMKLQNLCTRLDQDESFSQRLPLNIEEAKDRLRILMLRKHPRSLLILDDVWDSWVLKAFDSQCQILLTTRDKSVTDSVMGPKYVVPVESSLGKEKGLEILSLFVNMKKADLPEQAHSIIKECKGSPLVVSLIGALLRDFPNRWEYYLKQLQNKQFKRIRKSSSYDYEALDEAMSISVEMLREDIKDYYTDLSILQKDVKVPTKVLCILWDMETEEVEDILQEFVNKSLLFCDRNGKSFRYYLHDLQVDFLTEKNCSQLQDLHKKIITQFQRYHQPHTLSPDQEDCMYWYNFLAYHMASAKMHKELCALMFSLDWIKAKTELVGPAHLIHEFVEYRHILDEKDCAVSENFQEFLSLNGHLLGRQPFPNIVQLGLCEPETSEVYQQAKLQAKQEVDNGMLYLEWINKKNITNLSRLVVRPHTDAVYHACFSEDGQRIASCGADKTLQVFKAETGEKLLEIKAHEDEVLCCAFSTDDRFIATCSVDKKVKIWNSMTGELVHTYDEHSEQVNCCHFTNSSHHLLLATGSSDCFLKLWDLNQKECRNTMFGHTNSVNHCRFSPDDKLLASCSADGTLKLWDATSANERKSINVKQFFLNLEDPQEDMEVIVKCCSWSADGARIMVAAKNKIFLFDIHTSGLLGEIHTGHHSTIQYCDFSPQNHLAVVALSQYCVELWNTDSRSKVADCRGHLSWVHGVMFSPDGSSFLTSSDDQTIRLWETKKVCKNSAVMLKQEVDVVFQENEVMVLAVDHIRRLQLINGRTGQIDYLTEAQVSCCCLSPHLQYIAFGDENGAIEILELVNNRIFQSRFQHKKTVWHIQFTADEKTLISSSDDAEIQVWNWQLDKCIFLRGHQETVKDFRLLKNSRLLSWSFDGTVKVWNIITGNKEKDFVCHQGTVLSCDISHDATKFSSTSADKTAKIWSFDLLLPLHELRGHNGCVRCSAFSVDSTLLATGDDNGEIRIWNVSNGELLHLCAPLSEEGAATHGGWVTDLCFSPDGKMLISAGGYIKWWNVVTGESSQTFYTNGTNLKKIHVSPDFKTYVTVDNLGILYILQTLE

[4] = test system: H9c2; experiment: cells; assay type: functional, cell-based; conditions: Rattus norvegicus, H9c2, Myocardium;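 further: confirmatory concentration-response retest of ultra-high-throughput screening hits for modulation of myocardial damage; cell death induced by hydrogen peroxide oxidative stress; compound pretreatment for 60 min then peroxide exposure for 2 h; potency is for protecting the cells against peroxide damage rather than for killing them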
[5] = target: T2, Rac GTPase-activating protein 1 (Homo sapiens, UniProt Q9H0H5); experiment: MgcRacGAP GTPase-activating activity inhibitors, confirmation, biochemical, ADP Hunter fluorescence, primary and confirmatory (AID 624330); assay type: functional
T2 sequence (Q9H0H5 whole entry): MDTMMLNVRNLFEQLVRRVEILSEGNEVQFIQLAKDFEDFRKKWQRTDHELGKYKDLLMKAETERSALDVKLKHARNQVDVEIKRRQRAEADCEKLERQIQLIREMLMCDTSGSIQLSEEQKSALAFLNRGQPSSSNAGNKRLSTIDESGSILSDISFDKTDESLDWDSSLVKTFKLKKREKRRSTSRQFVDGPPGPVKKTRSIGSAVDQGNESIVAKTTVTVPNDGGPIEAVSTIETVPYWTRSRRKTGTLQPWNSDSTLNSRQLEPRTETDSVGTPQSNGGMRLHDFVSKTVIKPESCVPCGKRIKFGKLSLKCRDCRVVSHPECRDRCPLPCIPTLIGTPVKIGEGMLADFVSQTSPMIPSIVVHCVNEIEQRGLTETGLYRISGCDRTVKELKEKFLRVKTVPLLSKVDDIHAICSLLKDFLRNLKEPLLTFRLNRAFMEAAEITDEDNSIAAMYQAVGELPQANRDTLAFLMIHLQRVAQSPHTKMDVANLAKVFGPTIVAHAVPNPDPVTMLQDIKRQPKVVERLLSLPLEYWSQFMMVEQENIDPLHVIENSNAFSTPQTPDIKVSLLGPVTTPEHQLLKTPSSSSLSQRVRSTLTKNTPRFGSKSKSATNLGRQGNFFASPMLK

[6] = test system: CHO; experiment: cytotoxicity in TLR9-MyD88 CHO cells, dose response, cytotoxicity control for TLR9-MyD88 binding inhibitor project, cell-based, luminescence (AID 588339); assay type: functional, hamster; conditions: Cricetulus griseus;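 further: CHO cells stably coexpressing TLR9 and MyD88 fusions from primary screen; compound exposure lasted 48 hours before viability readout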
[7] = target: Beta Lactamase (Pseudomonas aeruginosa, UniProt Q932Y6); experiment: beta-lactamase reporter inhibitor potency, dose response, artefact control for TLR9-MyD88 binding inhibitor project, BLA reporter cells, FRET fluorescence (AID 588341); assay type: cell-based;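 further: cell based assay in CHO-K1 cells stably expressing beta-lactamase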
Chain of Beta Lactamase (Q932Y6 whole entry): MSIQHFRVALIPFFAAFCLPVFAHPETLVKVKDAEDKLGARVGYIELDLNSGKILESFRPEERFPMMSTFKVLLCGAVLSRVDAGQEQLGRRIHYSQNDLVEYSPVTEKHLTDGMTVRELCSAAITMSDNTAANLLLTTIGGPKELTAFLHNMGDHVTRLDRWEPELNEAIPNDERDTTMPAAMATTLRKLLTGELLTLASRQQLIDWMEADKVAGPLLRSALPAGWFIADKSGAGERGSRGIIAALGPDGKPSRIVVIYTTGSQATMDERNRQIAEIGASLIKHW

[8] = test system: HEK293; experiment: inhibitors of LMP1-driven NF-kB reporter, dose response, cell-based, HEK293, luciferase, cherry-pick (AID 588343); assay type: functional; conditions: Homo sapiens
[9] = test system: Candida albicans; experiment: growth inhibition of azole-resistant C. albicans, dose response, CaCi-8 strain, Alamar Blue, dry powder, set 3 (AID 488905); assay type: functional, organism-based
[10] = test system: Candida albicans; experiment: reversal of fluconazole resistance in C. albicans, dose response, CaCi-2 strain, Alamar Blue, dry powder, set 3 (AID 488907); assay type: functional, organism-based

## Oc1ccccc1Nc1nc(NCc2ccco2)c2ccccc2n1
[1]
  EC50: 2.11 µM (active)
[2]
  EC50: 0.492 µM (active)

## COc1ccc(NCc2cc3cc(OC)ccc3nc2O)cc1
[3]
  IC50: 62.5 µM (active)
[4]
  IC50: > 79 µM (inactive)
[5]
  IC50: 89.3 µM (active)

## COc1ccccc1N1N=C(c2cccs2)CC1c1ccccc1 (stereo not given)
[6]
  IC50: > 49.7 µM (inactive)
[7]
  IC50: 3.62 µM (active)

## Brc1ccc2ncnc(NCc3ccccc3)c2c1
[8]
  AC50: 5.03 µM (active)

## N#Cc1ccc(C(=O)N2CCN(c3ccccn3)CC2)cc1
[9]
  AC50: 128 µM (active)
[10]
  AC50: 2.66 µM (active)
